Assay results taken from US8865659B2, “Compositions for prevention or treatment of Hepatitis C virus containing ginsenoside Rg3 as an active ingredient” (priority 2012, dated 2014).

System: phospho-NFκB
Experiment: Western blotting onto NFκB and phospho-NFκB in JFH-1 infected Huh 7.5.1 cells
Format: cell-based
Settings: 100 μM, 72 hours
From the text: Conducted western blotting onto NFκB and phospho-NFκB which are transcription factors of virus suppression mechanism of ginsenosides to a hepatoma cell line.
Specifically, it is known that when cells are infected with hepatitis C viruses, TNF-α in the cells increases and, apoptosis actions in the cells increases due to an anti-apoptotic factor, NFkB decreases. Additionally, identification of phosphor-NFκB among NFκB (total) is important to know activation level of NFκB.
Herein, western blotting analysis onto NFκB and phospho-NFκB, transcription factors, was carried out to identify the TNF-α mediated apoptotic signaling pathway. The TNF-α is induced by Hepatitis C. The analysis was conducted 72 hours after the samples of Huh 7.5.1 cells treated with each 100 μM of seven ginsenosides (Ro, Re, Rg1, Rg2, Rg3, Rh1, Rh2) as above stated in Example 3.
Specifically, the western blotting analysis was carried out as follow. First, the above described samples were prepared, mixed with a sample buffer in tubes and heated at 100° C. for 10 minutes. The tubes were cooled on ice and centrifuged. The electrophoresis was carried out with the prepared samples and molecular weight markers were put in. And then, they were transferred to a PVDF membrane (hydrophobic). After blocking with 5% skin milk for an hour, primary antibodies of NFκB and phospho-NFκB were added. […]

CC(C)=CCC[C@](C)(O)[C@H]1CC[C@]2(C)[C@@H]1[C@H](O)C[C@@H]1[C@@]3(C)CC[C@H](O[C@@H]4O[C@H](CO)[C@@H](O)[C@H](O)[C@H]4O[C@@H]4O[C@H](CO)[C@@H](O)[C@H](O)[C@H]4O)C(C)(C)[C@@H]3CC[C@]12C [ginsenoside Rg3]
apoptosis of cells: remarkably decreased
